Here are results for 3 molecules from patent publication US5795857A, “Mimetic insect pyrokinin analogs for insect control” (The United States of America as represented by the …, priority 1996, dated 1998).

“Also recorded” adds a separate entry of the source. Residues, ends and D or L forms follow the SMILES beside them. *: point of attachment. Hexanoyl(6-Ph) = O=C(CCCCCc1ccccc1)*

In series [1] the test system is virgin females of Heliothis virescens. Nature of the series: Pheromonotropic assay (injection). The series is classed as in vivo. Particulars: 0.06-200 pmol, 60 min after injection, FIG. 5. Here is the method:
Pupae of H. virescens were obtained from a laboratory colony maintained at the Insect Attractants, Behavior and Basic Biology Research Laboratory, USDA-ARS, in Gainesville, Fla. The pupae were separated by sex and the males were discarded. After eclosion, the females were held in 4-1 cages and provided with cotton wicks soaked with 5% sucrose solution. The insects were held at 25°±2° C, 65±3% relative humidity with a 12:12 (L:D) photoperiod. Virgin females were used for bioassays 2 and 3 days after eclosion during the 7th-8th hour of the photophase when endogenous levels of pheromone are very low (Abernathy, 1995, Regulation of sex pheromone production and oviposition in virgin females of noctuid moths, doctoral dissertation, University of Florida, Gainesville, Fla., pp. 1-107).
Pheromone biosynthesis neuropeptide from H. zea (Hez--PBAN) and the carboranyl pseudopeptide Cbe--Thr--Pro--Arg--Leu--NH2 were dissolved in physiological saline (Christensen et al., 1991, Proc. Natl. Acad. Sci. USA, 88:4971-4975). Female H. virescens insects were injected through the side of the third abdominal segment using a 26-ga needle with 20 μl of the above solutions. Each female received a dose of 0.01, 0.03, 0.1, 0.3, 1, 3, 10, 30, 100 or 300 pmol. After 1 h of incubation, the terminal abdominal segments, which contain the pheromone gland, were excised and placed in 10 μl of hexane containing 10 ng each of internal standards (octadecane and nonadecane) used for quantitation and calculation of relative retention indices. The pheromone gland extracts were analyzed for the amount of (Z)-11-hexadecenal (Z11-16:AL), the major sex pheromone component of H. virescens (Klun et al., 1980, J. Chem. Ecol., 6:165-175) by capillary gas chromatography. Hewlett-Packard 5890 gas chromatographs were equipped with splitless injectors, flame ionization detectors, and 30 m×0.25 mm (i.d.) fused silica "SPB 10" (polar) or "SPB1" (apolar) columns (Supelco). Conditions of chromatography were as follows: initial temperature=60° C.; injector operated in the splitless mode for 0.5 min; oven temperature increased by 30° C./min after 1 min; final temperature=190° C. ("SPB10") or 200° C. ("SPB1"); helium carrier gas at a linear flow velocity of 18 cm/s. A Nelson Analytical 3000° acquisition system (Cupertino, Calif.) was used to collect and analyze the data (Teal et al., 1989, Proc. Natl. Acad. Sci. USA, 86:2488-2492).
After the dose response of Hez--PBAN was completed, the […] dose was chosen to use for comparison with the carboranyl pseudopeptide assayed here. Insects were also injected with saline alone as a control. The pseudopeptide was prepared by dilution with saline as described above. Based on the dose-response for the activity of Hez--PBAN, […] were chosen to assess the pheromonotropic activity of the carboranyl pseudopeptide. Females were injected with 20 μl containing 0.01, 0.03, 0.1, 0.3, 1, 3, 10, 30, 100, or 300 pmol. Each bioassay consisted of one dose of several different peptides along with saline and Hez--PBAN controls. The amount of pheromone present in extracts of the pheromone glands of females from each group was compared with that produced by females injected with 5 pmol of Hez--PBAN during that particular bioassay. After all the bioassays were completed, the amount of pheromone produced by each insect was calculated as a percentage of the amount of pheromone produced by females treated with Hez--PBAN. Data were analyzed using one-way ANOVA and t-test with "STATVIEW" software. Variability was reported as SEM.
The pheromonotropic activity of Hez--PBAN, Lom--MT--II and [6--Pha--Ala^0 ]Lom--MT--II was first determined by a series of injection bioassays. Peptides were dissolved in physiological saline (Christensen et al., ibid) and diluted to concentrations of 0.003, 0.01, 0.03, 0.1, 0.3, 1.0, 3.0 and 10.0 pmol/μl. Insects were injected through the side of the 3rd abdominal segment using a 26 ga. needle with 20 μl of the above solutions. […]

The test system is the same in series [2]. Nature of the series: Pheromonotropic assay (topical application). It counts as in vivo. How it is done: The amphiphilic carboranyl analog Cbe--Thr--Pro--Arg--Leu--NH2 was dissolved in water and solutions at concentrations of 5, 10, 25, 60, and 200 pmol/μl were prepared. The cuticular scales along the lateral side of the abdomen were removed with a 1 ml plastic pipet tip attached to house vacuum with a rubber hose. A low vacuum was applied to the apparatus and the pipet tip was gently passed over the cuticle until the scales were drawn by suction. After the scales were removed, 1 μl of peptide solution was applied to the surface of the cuticle and smoothed evenly over the prepared surface. […]
Pupae of Heliothis virescens were obtained from a laboratory colony maintained at the Insect Attractants Behavior and Basic Biology Research Laboratory, USDA-ARS, Gainesville, Fla. The pupae were separated by sex and the females were held in 4-1 cages. Cages were inspected daily for newly eclosed adults which were transferred to new cages and provided with cotton wicks soaked with a 5% sucrose solution. The insects were held at 25°[…] C. and 65%±3% relative humidity with a 12:12 (L:D) photoperiod. Virgin females were used for bioassays 2 and 3 days after eclosion during the 7th-8th hour of the photophase when little or no pheromone is present in the gland (Teal et al., 1993, Can. Entomol., 153:355-366). The cuticular scales were removed from the lateral side of the abdomen using a plastic pipet tip attached to house vacuum using a rubber hose. A low vacuum was applied and the pipet tip was passed gently over the cuticle until the scales were drawn off by suction. Insects were returned to the incubator for 24 h after the scales were removed for most experiments. However, insects were not given a recovery period in studies in which peptides were applied in DMSO (see below).
In initial studies we used dimethyl sulfoxide (DMSO) as a carrier to deliver Hez--PBAN or [6--Pha--Ala^0 ]Lom--MT--II for topical applications. […] We also assessed different carrier solvents for their ability to deliver these two peptides. Peptides were dissolved at a concentration of 500 pmol/μl in: DMSO, water, or 80% acetonitrile:20% water. Solutions were applied to the descaled abdomen in 1 μl of solvent as above. The insects were allowed to incubate for 1 h prior to excision and extraction of the pheromone gland. Extracts were analyzed for the amount of pheromone as above.
The use of water as a carrier for [6--Pha--Ala^0 ]Lom--MT--II was also assessed in dose response and temporal activity studies. For dose response studies [6--Pha--Ala^0 ]Lom--MT--II was dissolved in water at concentrations of 5, 10, 25, 50, 75, 100, 250, 500, 750 and 1000 pmol/μl. Insects were incubated for 60 min after application of 1 μl of solution to the descaled abdomen. In temporal activity studies a 100 pmol/μl dose was selected. For these experiments insects were incubated for periods of 15, 30, 60, 120, or 180 min after application of 1 μl of solution to the descaled abdomen. The ability of the parent peptide, Lom--MT--II, to stimulate pheromone production when applied topically in water was assessed by applying doses of 50, 100, 250 and 500 pmol to the abdomen. Control treatments for this experiment included insects treated with only water and females treated by topical application of 100 pmol of [6--Pha--Ala^0 ]Lom--MT--II. After incubation the sex pheromone glands were excised, extracted and analyzed for the amount of pheromone.

Series [3] deals with isolated cockroach (Leucophaea maderae) hindgut. Kind of series: Cockroach myotropic bioassay (isolated hindgut). It counts as cell-based. Particulars: isolated hindgut, FIG. 2; listed as LPK. Here is the method:
Leucophaea maderae cockroaches were taken from stock colonies maintained at 27° C. and fed dry dog food ad lib. Cockroach hindguts, free of central nervous system (CNS) tissue, were dissected, immersed in saline, and prepared for recording of myogenic activity as previously described (Holman et al., 1991, ibid). Threshold concentrations were determined for each analogue by adding a known quantity of peptide (dissolved in 0.5 ml bioassay saline) to the bioassay chamber containing the hindgut and observing the response on a Gould 2200S oscillograph recorder. The quantity of the peptide analogues was calculated from the values obtained for Phe and/or Leu in the amino acid analysis. The threshold concentration was defined as the minimum concentration of peptide in the chamber required to evoke an observable change in the frequency (50%) or amplitude of contractions (5%) within 1 min and sustained for 3 min. Threshold concentrations were obtained from five cockroach hindguts on 5 consecutive days for each peptide. Quantitative data for dose-response plots were obtained as previously described (Holman et al., 1991, ibid).

For series [4] the test system is unchanged. To be noted: values printed with reference numbers; cited from earlier work.
Series [5] has as its system corn earworm moth H. zea. Particulars: cited from earlier work.
For series [6] the following is noted: in vivo; cited from earlier work.

For the molecule `CC(C)C[C@H](NC(=O)[C@H](CCCNC(=N)N)NC(=O)[C@@H]1CCCN1C(=O)[C@@H](NC(=O)[C@H](Cc1ccccc1)NC(=O)[C@H](CC(=O)O)NC(=O)CNC(=O)[C@H](CCC(=O)O)NC(=O)[C@H](C)NC(=O)CCCCCc1ccccc1)[C@@H](C)O)C(N)=O` [[6--Pha--Ala^0]Lom--MT--II] ({Hexanoyl(6-Ph)}-AEGDFTPRL-NH2), the “pheromonotropic activity of injected peptide, compared” value in series [1] is on record as “reduced the activity, compared to Lom--MT--II, at doses up to 6 pmol; also recorded: equivalent to Hez--PBAN at all other doses”. The “pheromonotropic activity of injected peptide, compared” value in series [1] (listed as [6--Pha--Ala^0]Lom--MT--II) is “pheromonotropic activity equivalent to Hez--PBAN”. For the same molecule, in series [2] (100 pmol in water, FIG. 9), the “time after application at which gland extracts contained significant amounts of pheromone” value is recorded as ≤ 15 min and the “time of maximal activity after application” value is 60 min. Also, the “pheromone production, topical 500 pmol/female in 80% acetonitrile” value in series [2] (80% acetonitrile in water, 60 min, FIG. 7) is given as “significant amounts of pheromone; also recorded: induced the production of pheromone”. For the same molecule, the “response to topical application of 5 and 10 pmol doses in DMSO” value in series [2] (DMSO carrier, 60 min, FIG. 6) is given as “produced pheromone”. The “amount of pheromone at 100 to 1000 pmol/female, topical in DMSO” value in series [2] (DMSO carrier, FIG. 6) is reported as “equivalent amounts of pheromone”. In addition, in series [2] (DMSO carrier, descaled cuticle), the “pheromone production after topical application in DMSO” value is on record as “produced pheromone; also recorded: effective in stimulating pheromone production”. Besides, the “pheromone production, topical 500 pmol/female in DMSO” value in series [2] (DMSO, 60 min, FIG. 7) is reported as “equivalent amounts of pheromone”. The “concentration giving maximal pheromone stimulation, topical application” value in series [2] (topically applied) is listed as 100 picomoles/insect. Moreover, in series [2] (water carrier, 60 min, FIG. 8), the “dose up to which activity increased in a linear fashion (100-1000 pmol not different)” value was 100 pmol and the “doses stimulating significantly more pheromone than just water, topical in water” value was ≥ 10 pmol. Moreover, the “pheromone production, topical 500 pmol/female in water” value in series [2] (water, 60 min, FIG. 7) is on record as “significant amounts of pheromone”.
In the case of “pQTSPhe--Thr--Pro--Arg--Leu--NH2 (pQTS-FTPRL-NH2) [octapeptide leucopyrokinin of the cockroach Leucophaea maderae, reference compound]”, the “reversibility of myostimulatory response by saline rinse” value in series [3] is listed as “immediately reversed by a saline rinse; also recorded: immediately vanished following a saline rinse; also recorded: subsides immediately following a saline rinse”. Also, the “Threshold Concentration, myostimulation of the isolated cockroach hindgut” value in series [4] was 650 pM. The “Maximal Response via injection (dose)” value in series [5] (data from H. zea) was 70 pmol. In addition, the “ED50, pheromone production via injection” value in series [5] (data from the related corn earworm moth H. zea) is 5 pmol.
As for proctolin, the “fate of ingested peptide in the gut” value in series [6] is “rendered inactive in the gut”.
